Measured values as given in PMC10878397, “Development of Potent Dual BET/HDAC Inhibitors via Pharmacophore Merging and Structure-Guided Optimization” (ACS Chemical Biology, 2024).
Values joined by “and” are separate entries in the source; they are usually repeats but may differ in a detail not shown here. Identical values can stand only once. Like-named read-outs stand apart in the source and are kept apart here.

Key:
[1] = tested on: HCC2429 cells; assay: CellTiter-Glo cell viability assay; type: cell-based; conditions: Homo sapiens, HCC2429, 72 h; treatment for 3 days
Procedure: (§1) PDAC cell line PaTu8988T was obtained from ATCC and cultured in Dulbecco’s modified Eagle’s medium (DMEM) containing 10% FBS, 25 mM glucose, […], 1 mM sodium pyruvate, and 1% penicillin–streptomycin. Nut midline carcinoma cell line HCC2429 was kindly provided by Lead Discovery Center GmbH (Dortmund, Germany) and was cultured in RPMI1640 medium containing 10% FBS, 2 mM L-glutamine, and 1% penicillin–streptomycin. Cell line PaTu8988T was authenticated using the Multiplex human Cell line Authentication Test (MCA) by Multiplexion GmbH, and cell line HCC2429 was authenticated using short tandem repeat (STR) profiling.
(§2) The assays were performed using Promega’s CellTiter-Glo Luminescent Cell Viability Assay kit (Cat. #G7571). First, compounds dissolved in DMSO were printed in 96-well plates (Corning) by using a Tecan D300e digital dispenser. Then, cells were seeded into the compound-printed plates using a Thermo Multidrop reagent dispenser. 72 h later, one volume of diluted CellTiter-Glo reagent (1:4 dilution with PBS) was added to individual wells by using the Thermo Multidrop reagent dispenser again. Plates were shaken for 2 min and incubated for 10 min in the dark. Luminescent signals were read by using a Tecan Spark Multimode Microplate Reader. The values were normalized to the DMSO control wells and presented as a percentage of cell viability. Dose–response curves were drawn with GraphPad Prism 8.

[2] = tested on: PaTu8988T cells; assay: CellTiter-Glo cell viability assay; type: cell-based; conditions: Homo sapiens, PaTu 8988t, 72 h; treatment for 3 days
Procedure: as §1, §2

[3] = biological target: T1, BRD4 BD1 (Homo sapiens, UniProt O60885); assay: NanoBRET target engagement assay (HEK293T); type: cell-based; parameters: BRD4 bromodomains and full-length HDACs were obtained as plasmids cloned in-frame with a terminal NanoLuc fusion; host or cells: HEK293T
Procedure: (§3) The assay was performed as described previously.[17],[59] In brief, BRD4 bromodomains and full-length HDACs were obtained as plasmids cloned in-frame with a terminal NanoLuc fusion (Promega). Plasmids were transfected into HEK293T cells using FuGENE HD (Promega, E2312), and proteins were allowed to express for 20 h. Serially diluted inhibitor and the corresponding NanoBRET Tracer (Promega) at a concentration determined previously as the tracer KD, app were pipetted into white 384-well plates (Greiner #781207) for BRD assays or white 96-well plates (Corning #3600) for HDAC using an Echo acoustic dispenser (Labcyte). The corresponding protein-transfected cells were added and reseeded at a density of 2 × 10^5 cells/mL after trypsinization and resuspended in Opti-MEM without phenol red (Life Technologies). The system was allowed to equilibrate for 2 h at 37 °C/5% CO2 prior to BRET measurements. To measure BRET, NanoBRET NanoGlo substrate + Extracellular NanoLuc Inhibitor (Promega, N2540) was added as per the manufacturer’s protocol, and filtered luminescence was measured on a PHERAstar plate reader (BMG Labtech) equipped with a luminescence filter pair (450 nm BP filter (donor) and 610 nm LP filter (acceptor)). For lysed-mode NanoBRET experiments, digitonin (Promega, #G9441) was added as per the manufacturer’s instructions to a final concentration of […].

[4] = biological target: T2, BRD4 BD2 (Homo sapiens, UniProt O60885); assay: NanoBRET target engagement assay (HEK293T); type: cell-based; parameters: BRD4 bromodomains and full-length HDACs were obtained as plasmids cloned in-frame with a terminal NanoLuc fusion; host or cells: HEK293T
Procedure: as §3

[5] = biological target: HDAC2 (Homo sapiens, UniProt Q92769); assay: NanoBRET target engagement assay (HEK293T); type: cell-based; parameters: BRD4 bromodomains and full-length HDACs were obtained as plasmids cloned in-frame with a terminal NanoLuc fusion; host or cells: HEK293T
Chain of HDAC2 (Q92769 whole entry, the tested form may be a part): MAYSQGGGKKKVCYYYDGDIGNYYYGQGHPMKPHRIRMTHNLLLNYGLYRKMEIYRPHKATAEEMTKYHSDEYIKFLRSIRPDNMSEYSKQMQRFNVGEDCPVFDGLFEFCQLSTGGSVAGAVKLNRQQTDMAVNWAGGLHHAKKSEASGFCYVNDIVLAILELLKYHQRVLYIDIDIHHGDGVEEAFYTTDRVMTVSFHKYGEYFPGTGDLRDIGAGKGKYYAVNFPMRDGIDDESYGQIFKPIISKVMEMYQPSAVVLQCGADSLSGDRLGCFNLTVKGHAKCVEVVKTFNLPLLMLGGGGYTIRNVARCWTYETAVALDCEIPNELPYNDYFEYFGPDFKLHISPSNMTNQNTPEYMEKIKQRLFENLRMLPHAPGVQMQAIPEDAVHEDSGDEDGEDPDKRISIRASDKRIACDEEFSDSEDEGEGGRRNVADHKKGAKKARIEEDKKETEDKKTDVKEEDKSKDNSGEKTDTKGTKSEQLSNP
Procedure: (§4) The assay was performed as described previously.[17],[59] In brief, BRD4 bromodomains and full-length HDACs were obtained as plasmids cloned in-frame with a terminal NanoLuc fusion (Promega). Plasmids were transfected into HEK293T cells using FuGENE HD (Promega, E2312), and proteins were allowed to express for 20 h. […] The corresponding protein-transfected cells were added and reseeded at a density of 2 × 10^5 cells/mL after trypsinization and resuspended in Opti-MEM without phenol red (Life Technologies). The system was allowed to equilibrate for 2 h at 37 °C/5% CO2 prior to BRET measurements. […] For lysed-mode NanoBRET experiments, digitonin (Promega, #G9441) was added as per the manufacturer’s instructions to a final concentration of […].

[6] = biological target: HDAC1 (Homo sapiens, UniProt Q13547); assay: NanoBRET target engagement assay (HEK293T); type: cell-based; parameters: BRD4 bromodomains and full-length HDACs were obtained as plasmids cloned in-frame with a terminal NanoLuc fusion; host or cells: HEK293T
Chain of HDAC1 (Q13547 whole entry, the tested form may be a part): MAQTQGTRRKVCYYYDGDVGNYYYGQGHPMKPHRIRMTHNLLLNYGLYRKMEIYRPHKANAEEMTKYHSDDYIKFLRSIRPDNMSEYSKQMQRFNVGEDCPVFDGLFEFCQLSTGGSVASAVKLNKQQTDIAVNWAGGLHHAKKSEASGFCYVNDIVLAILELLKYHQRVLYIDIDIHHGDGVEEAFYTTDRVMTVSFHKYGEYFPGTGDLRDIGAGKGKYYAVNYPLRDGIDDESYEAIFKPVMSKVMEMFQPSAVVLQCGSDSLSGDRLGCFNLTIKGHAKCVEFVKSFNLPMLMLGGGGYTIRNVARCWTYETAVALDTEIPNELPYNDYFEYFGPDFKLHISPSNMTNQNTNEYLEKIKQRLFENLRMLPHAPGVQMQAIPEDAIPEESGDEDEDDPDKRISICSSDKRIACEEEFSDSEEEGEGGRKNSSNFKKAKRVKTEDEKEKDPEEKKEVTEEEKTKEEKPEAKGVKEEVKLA
Procedure: as §4

[7] = biological target: T1, BRD4 BD1; assay: DSF thermal shift assay; type: binding; parameters: purchased in-house (SGC Frankfurt recombinant bromodomain DSF panel)
Procedure: (§5) The effects of inhibitor binding on the apparent melting temperature of recombinant bromodomains were determined by DSF in a 96-well plate (Starlab) at a protein concentration of 2 μM with 10 μΜ compound in buffer containing 25 mM HEPES, pH 7.5, 150 mM NaCl, and 0.5 mM TCEP. […] Protein unfolding profiles were recorded using an MX3005P real-time qPCR instrument (Agilent; excitation/emission filters = 492/610 nm) while increasing the temperature from 25 to 95 °C at a heating rate of 3 °C/min. Tm values were calculated after fitting the fluorescence curves to the Boltzmann equation. Differences in melting temperature upon compound binding are given as ΔTm = Tm (protein with inhibitor) – Tm (protein with DMSO control). Measurements were performed in triplicates.

[8] = biological target: T2, BRD4 BD2; assay: DSF thermal shift assay; type: binding; parameters: purchased in-house (SGC Frankfurt recombinant bromodomain DSF panel)
Procedure: as §5

[9] = biological target: BRD4 bromodomains (Homo sapiens, UniProt O60885); assay: NanoBRET target engagement assay, both bromodomains; type: cell-based
Procedure: as §3

[10] = biological target: HDAC3 (Homo sapiens, UniProt O15379); assay: NanoBRET target engagement assay (HEK293T); type: cell-based; parameters: BRD4 bromodomains and full-length HDACs were obtained as plasmids cloned in-frame with a terminal NanoLuc fusion; host or cells: HEK293T; conditions: intact cells
Chain of HDAC3 (O15379 whole entry, the tested form may be a part): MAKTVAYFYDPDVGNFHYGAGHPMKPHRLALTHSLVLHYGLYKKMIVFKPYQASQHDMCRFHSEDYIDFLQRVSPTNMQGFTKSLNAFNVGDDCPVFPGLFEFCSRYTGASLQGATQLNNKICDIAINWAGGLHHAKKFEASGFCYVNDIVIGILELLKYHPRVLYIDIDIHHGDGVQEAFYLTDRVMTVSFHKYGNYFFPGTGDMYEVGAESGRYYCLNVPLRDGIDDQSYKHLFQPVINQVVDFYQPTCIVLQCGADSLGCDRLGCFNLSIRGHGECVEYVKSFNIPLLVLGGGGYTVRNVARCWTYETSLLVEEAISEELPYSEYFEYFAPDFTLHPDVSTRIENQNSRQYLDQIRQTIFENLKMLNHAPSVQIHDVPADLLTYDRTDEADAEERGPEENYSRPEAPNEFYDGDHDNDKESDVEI
Procedure: as §4

[11] = parameters: method as in PMID 30649740; conditions: cited from earlier work
[12] = 10 μM compound, 2 μM protein, read-out: DSF ΔTm BRD4 BD1
[13] = 10 μM compound, 2 μM protein, read-out: DSF ΔTm BRD4 BD2
[14] = read-out: DSF ΔTm BRD4 BD1, 10 μM compound, 2 μM protein
[15] = read-out: DSF ΔTm BRD4 BD2, 10 μM compound, 2 μM protein

Row | Compound | IC50 [1] [µM] | EC50 ([5]; intact cells) | EC50 ([6]; intact cells) | EC50 ([6]; lysed cells (digitonin)) [µM] | ΔTm at 10 µM [7, 12] [°C] | ΔTm at 10 µM [8, 13] [°C] | EC50 ([3]; intact cells) [µM] | EC50 ([4]; intact cells) [µM] | IC50 [2] [µM] | other results
1 | CC(=O)Nc1ccc(C(=O)Nc2ccccc2N)cc1 [CI-994, reference compound] | 1.8 ± 0.2 |  |  |  |  |  |  |  | 13.1 ± 2.4 | EC50 ([3]; lysed cells (digitonin)): > 50 µM; EC50 ([4]; lysed cells (digitonin)): > 50 µM
2 | Cc1cc(/N=N/c2ccc(S(=O)(=O)Nc3ccccn3)cc2)c(N)cc1O [MS436, reference compound] | 0.81 ± 0.15 | > 50 µM | 18.8 ± 1 µM | > 50 | 4 ± 0.4 | ~3 |  |  | 10.4 ± 1.2 | EC50 ([5]; lysed cells (digitonin)): > 50 µM; DSF ΔTm BRD4 BD2 ([8]; 10 μM compound, 2 μM protein): 2.9 ± 0.1 K
3 | Cc1cc(/N=N/c2ccc(C(=O)Nc3ccccc3N)cc2)c(N)cc1O [NB161] |  | > 50 µM | 10.8 ± 5.1 µM |  | 5.3 | ~3 |  |  |  | DSF ΔTm BRD4 BD1 ([7]; 10 μM compound, 2 μM protein): 5.2 ± 0.3 K
4 | Cn1cc(-c2ccc3cc(C(=O)Nc4ccccc4N)ccc3n2)c2cc[nH]c2c1=O [NB437] |  | 24.8 µM and 25 µM | 23.2 µM and 23 µM | 11 ± 1.8 |  |  | 0.18 ± 0.03 | 0.2 ± 0.03 |  | EC50 ([9]; BD1 and BD2, intact cells, read-out: NanoBRET EC50 BRD4 bromodomains): 0.1 to 0.4 µM; DSF ΔTm BRD4 BD1 ([7]; 10 μM compound, 2 μM protein): 4.0 ± 0.2 K; ΔTm at 10 µM [7, 14]: 4 to 5 °C; DSF ΔTm BRD4 BD2 ([8]; 10 μM compound, 2 μM protein): 4.8 ± 0.2 K; ΔTm at 10 µM [8, 15]: 4 to 5 °C
5 | Cn1cc(-c2ccc(C(=O)Nc3ccccc3N)nn2)c2cc[nH]c2c1=O [NB501] | 0.54 ± 0.06 | 4.6 ± 0.6 µM | 16.8 ± 6.7 µM |  |  |  | 0.39 ± 0.02 | 0.29 ± 0.12 | 8.5 ± 1.3 | fold reduced binding to BRD4 compared with NB500 ([9]; NanoBRET): about 2 fold; ΔTm at 10 µM [7, 14]: 2.9 ± 0.3 °C; ΔTm at 10 µM [8, 15]: 3.6 ± 0.2 °C
6 | O=C(CCCCCCC(=O)Nc1ccccc1)NO [SAHA, suberoyl anilide hydroxamic acid] |  |  |  |  |  |  |  |  |  | metabolic half-life [11]: 2 h

Now from value to molecule, other results behind:

Row | IC50 [1] [µM] | EC50 ([5]; intact cells) | EC50 ([6]; intact cells) | EC50 ([6]; lysed cells (digitonin)) [µM] | ΔTm at 10 µM [7, 12] [°C] | ΔTm at 10 µM [8, 13] [°C] | EC50 ([3]; intact cells) [µM] | EC50 ([4]; intact cells) [µM] | Compound | IC50 [2] [µM] | other results
7 |  | 1.3 ± 0.9 µM | 2.1 ± 0.7 µM |  | 7.5 ± 0.2 | 5.2 ± 0.2 | 0.19 ± 0.03 | 0.05 ± 0.01 | Cc1cc(/N=N/c2ccc(C(=O)Nc3ccccc3N)cc2)c2cc[nH]c2c1O [NB390] |  | 
8 |  | 39.7 ± 9 µM | 34.4 ± 5.8 µM | 32.2 ± 7.1 | 0.9 ± 0.2 | 1.7 ± 0.3 | 3.7 ± 0.5 | 2.1 ± 0.4 | Cn1cc(-c2ccc(C(=O)Nc3ccccc3N)cc2N)c2cc[nH]c2c1=O [NB469] |  | 
9 |  | > 50 µM | > 50 µM | > 50 | 3.8 ± 0.1 | 4.3 ± 0.3 | 0.39 ± 0.06 | 0.23 ± 0.07 | COc1cc(C(=O)Nc2ccccc2N)ccc1-c1cn(C)c(=O)c2[nH]ccc12 [NB470] |  | 
10 |  | 3.7 ± 2.4 µM | 2.3 ± 0.6 µM |  | 1.9 ± 0.2 | 1.9 ± 0.3 | 2.6 ± 0.1 | 2.9 ± 0.2 | Cn1cc(C(=O)Nc2ccc(C(=O)Nc3ccccc3N)cc2)c2cc[nH]c2c1=O [NB480] |  | 
11 | 0.24 ± 0.02 | 14.2 ± 4.5 µM | 36.3 µM and 36 µM | 8.2 ± 2.1 |  |  | 0.34 ± 0.1 | 0.1 ± 0.01 | Cn1cc(-c2ccc(C(=O)Nc3ccc(F)cc3N)nc2)c2cc[nH]c2c1=O [NB507] | 5.2 ± 0.9 | EC50 [10]: > 50 µM
12 | 0.32 ± 0.04 | 2.9 ± 1.7 µM | 1.3 ± 1 µM |  |  |  | 0.37 ± 0.05 | 0.31 ± 0.05 | Cn1cc(-c2ccc(C(=O)Nc3cc(-c4ccco4)ccc3N)nc2)c2cc[nH]c2c1=O [NB513] | 2.6 ± 0.3 | 
13 | 0.55 ± 0.06 | 0.058 µM and 0.06 µM | 0.14 ± 0.05 µM | 0.022 ± 0.008 |  |  | 0.29 ± 0.05 | 0.18 ± 0.04 | Cn1cc(-c2ccc(C(=O)Nc3cc(-c4cccs4)ccc3N)nc2)c2cc[nH]c2c1=O [NB514] | 4.1 ± 0.7 | EC50 [10]: 11.4 ± 6.9 µM
